Laboratory results: ChEMBL document CHEMBL6120977, “Structure-Affinity-Pharmacokinetics Relationships of Novel 18F-Labeled 1,4-Diazepane Derivatives for Orexin 1 Receptor Imaging” (J Med Chem, 2024)

Experiments:
Format in all cases: cell-based
[1] = molecular target: T1, Orexin/Hypocretin receptor type 1 (Homo sapiens, UniProt O43613); test: Displacement of […]5IBOM from OX1R (unknown origin) transfected in CHO cells assessed as inhibition constant incubated for 1.5 hrs by automated gamma-counter analysis
T1 sequence (O43613 whole entry): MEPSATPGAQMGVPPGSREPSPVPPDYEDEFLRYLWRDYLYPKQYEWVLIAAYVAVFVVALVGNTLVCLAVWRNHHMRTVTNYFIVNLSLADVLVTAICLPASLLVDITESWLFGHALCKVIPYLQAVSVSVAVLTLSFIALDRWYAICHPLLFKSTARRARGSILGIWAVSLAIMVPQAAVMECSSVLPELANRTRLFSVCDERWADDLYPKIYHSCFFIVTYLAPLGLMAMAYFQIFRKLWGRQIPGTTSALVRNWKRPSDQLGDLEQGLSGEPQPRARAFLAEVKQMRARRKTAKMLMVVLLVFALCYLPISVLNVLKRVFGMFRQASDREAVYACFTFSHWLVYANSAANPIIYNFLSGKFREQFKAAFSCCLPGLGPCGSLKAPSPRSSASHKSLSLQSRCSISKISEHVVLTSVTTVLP

[2] = Selectivity ratio of Ki for OX2R (unknown origin) transfected in CHO cells to Ki for OX1R (unknown origin) transfected in CHO cells
Orexin receptor type 2 = molecular target: T2, Orexin receptor type 2 (Homo sapiens, UniProt O43614); test: Displacement of […]5IBOM from OX2R (unknown origin) transfected in CHO cells assessed as inhibition constant incubated for 1.5 hrs by automated gamma-counter analysis
T2 sequence (O43614 whole entry): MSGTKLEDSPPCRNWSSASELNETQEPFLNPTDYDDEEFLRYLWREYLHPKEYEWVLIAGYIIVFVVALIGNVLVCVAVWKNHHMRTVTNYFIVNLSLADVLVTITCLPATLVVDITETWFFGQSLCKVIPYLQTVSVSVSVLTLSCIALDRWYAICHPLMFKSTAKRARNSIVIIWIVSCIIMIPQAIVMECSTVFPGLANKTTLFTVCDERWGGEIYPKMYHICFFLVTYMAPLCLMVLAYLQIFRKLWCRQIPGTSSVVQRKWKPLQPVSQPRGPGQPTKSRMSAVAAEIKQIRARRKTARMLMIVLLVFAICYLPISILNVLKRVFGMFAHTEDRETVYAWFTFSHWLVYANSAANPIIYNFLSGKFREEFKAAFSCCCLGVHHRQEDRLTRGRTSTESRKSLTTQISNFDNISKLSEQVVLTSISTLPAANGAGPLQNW

SMILES	Ki [1] [nM]	Ki (Orexin receptor type 2) [nM]	Ratio Ki [2]
Cc1ccc2nc(N3CCCN(C(=O)c4cc(F)ccc4-n4nccn4)[C@@H](C)C3)sc2c1	7.46	26.1	3.5
C[C@H]1CN(c2nc3ccc(F)cc3s2)CCCN1C(=O)c1cc(F)ccc1-n1nccn1	1.89	15.5	8.19

The remaining compounds from weak to strong by Ki [1], led by results:

Ki [1] [nM]	Ki (Orexin receptor type 2) [nM]	SMILES	Ratio Ki [2]
17.7	156	Cc1ccc(-n2nccn2)c(C(=O)N2CCCN(c3nc4ccc(F)cc4o3)C[C@@H]2C)c1	8.8
2.14	20.6	Cc1ccc(-n2nccn2)c(C(=O)N2CCCN(c3nc4ccc(F)cc4s3)C[C@@H]2C)c1	9.63
1.14	12.8	Cc1ccc(-n2nccn2)c(C(=O)N2CCCN(c3nc4cc(F)ccc4s3)C[C@@H]2C)c1	11.3
0.64	5.17	C[C@H]1CN(c2nc3ccc(F)cc3s2)CCCN1C(=O)c1ccccc1-n1nccn1	8.08
